Format in all cases: in vivo
Data set [1] concerns transplanted rice. The experiment in a line: Test Example 1: preemergence treatment under submerged conditions, effect on crop. The conditions noted are these: dose 2.52 g/a. An outline of the steps:
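Flooded-paddy preemergence assay; EC diluted with water, surface-applied at weed seeding; doses g/a; rice transplanted at 2.5 leaves; 0–5 mortality score after 3 weeks.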

Data set [2] deals with ducksalad. Description: Test Example 2: herbicidal effects during the vegetation period under submerged conditions. The following applies: treatment during the vegetation period under submerged conditions; dose 2.52 g/a. The essentials: (§1)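 Barnyardgrass, bulrush and ducksalad were co-sown in alluvial soil flooded to 4 cm and grown in a greenhouse at 25 to 30° C. At the 1- or 2-leaf stage, water-diluted emulsifiable concentrates went onto the water surface at set doses (g/a). Herbicidal effect was scored three weeks later on a graded scale.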

Data set [3] deals with barnyardgrass. The data set is described as above. The following applies: treatment during the vegetation period under submerged conditions; dose 2.52 g/a. An outline of the steps: as §1
Data set [4] has as its system bulrush. The data set is described as above. The conditions noted are these: treatment during the vegetation period under submerged conditions; dose 2.52 g/a. An outline of the steps:
as §1

The test system of data set [5] is barnyardgrass. The experiment in a line: Comparative Example 2: herbicidal effects on barnyardgrass during the vegetation period under submerged conditions. The conditions noted are these: applied to water surface at the 2- or 2.5-leaf stage, three weeks after application. On the procedure: Comparative Example 2 Test on the Herbicidal Effects on Barnyardgrass During the Vegetation Period Under Submerged Conditions Alluvial soil was put in 1/30000-are styrol cups and admixed with water so that it was submerged at a depth of 4 cm. In each cup, seeds of barnyardgrass were sown, and the cups were placed in a greenhouse at 25 to 30° C. to grow the plants. When the barnyardgrass reached the 2- or 2.5-leaf stage, emulsifiable concentrates containing compounds of the present invention and the comparative compounds formulated in accordance with Formulation Example 2 were applied to the water surfaces at predetermined doses after diluted with water. Three weeks after the application, the herbicidal effects were determined on the same evaluation scale as in Test Example 1. The symbol A in the table is the same as defined above.

Structures are written as SMILES.

For `CC(C)COC(=O)N(c1ccccc1CN1COCCC1=O)S(=O)(=O)C(F)(F)F` [II-3], the “a: transplanted rice, effect on crop (evaluation scale 0-5)” value in data set [1] is 0 (mortality of less than 5% (almost ineffective)). For the same molecule, the “C: ducksalad, herbicidal effect (evaluation scale 0-5)” value in data set [2] is 4 (mortality of at least 70% and less than 90%). Besides, the “A: barnyardgrass, herbicidal effect (evaluation scale 0-5)” value in data set [3] is 5 (mortality of 90% or above (nearly complete death)). For the same molecule, the “B: bulrush, herbicidal effect (evaluation scale 0-5)” value in data set [4] was 5 (mortality of 90% or above (nearly complete death)). The “herbicidal effect, A (barnyardgrass)” value in data set [5] (dose 0.16 g/a) was 0 (mortality of less than 5% (almost ineffective)); in data set [5] (dose 0.64 g/a), 3 (mortality of at least 40% and less than 70%); in data set [5] (dose 2.52 g/a) it was 5 (mortality of 90% or above (nearly complete death)).
